Results: a melting point compilation (Tetko et al.; mined from patent text by program, amines drawn as free bases though some values may be those of a salt)

Row | Compound | melting point
1 | O=C(O)c1cccc2[nH]nnc12 | 250 to 252 °C
2 | Fc1ccc(-n2nc(N3CCNCC3)c3ccccc32)cc1 | 85 to 87 °C
3 | COC(=C(C)C#N)C(F)(F)F | 68 to 76.5 °C
4 | O=C(OCc1ccccc1)N1CCc2c(sc3nc(CCl)c(Cl)c(-c4ccc(OCC(F)(F)F)cc4)c23)C1 | 166 to 167 °C
5 | CCC(=NNc1ccccc1)c1cc(Cl)ccc1NS(=O)(=O)C(F)(F)F | 128 to 129 °C
6 | CC(C)CC1(CC(=O)NO)CCN(Cc2ccccc2)C1=O (stereo unspecified) | 119 to 120 °C
7 | CCCC1=C([N+](=O)[O-])C(c2ccccc2[N+](=O)[O-])c2c[nH]nc2N1 (stereo unspecified) | 204 °C
8 | CC(=O)Nc1nc(NC(C)=O)nc(-c2ccc(S(=O)(=O)c3ccccc3)cc2)n1 | > 260 °C
9 | CCCc1nn(-c2ccc(C(F)(F)F)cn2)cc1CCCOc1ccc(CC(=O)O)cc1OC | 121 to 122 °C
10 | O=C1CCN(c2ccc(S(=O)(=O)NCc3ccccc3)cc2)CC1 | 136 to 140 °C
11 | O=C(CN1CCOCC1)Nc1cccc2nc(N[C@@H]3CCc4ccccc43)ccc12 | 179 °C
12 | Nc1ccc(OC(F)(F)F)cc1C(=O)O | 142 to 144 °C
13 | Cc1cc(I)ccc1Nc1c(-c2nnc(N)o2)cc2c(ncn2C)c1F | 258 to 260 °C
14 | OCC(O)(C(F)(F)F)C(F)(F)F | 47 °C
15 | N#CC1=C(C2CCCCCC2)Nc2n[nH]cc2C1c1cccc2nonc12 (stereo unspecified) | 228 °C
16 | CCOC(=O)c1cn(CC)c2nn(C)cc2c1=O | 170 to 172 °C
17 | Fc1ccccc1-c1noc2c(Cl)c(OCc3nnn[nH]3)ccc12 | 198 to 200 °C
18 | CCOCCn1c(SC2CCN(C(=O)c3cc(C)cc(C)c3)C(Cc3ccccc3)C2)nc2ccccc21 (stereo unspecified) | 147 °C
19 | OC(CCN1CC=C(c2ccc(Cl)cc2)CC1)c1ccc(Cl)cc1Cl (stereo unspecified) | 96 to 98 °C
20 | C#Cc1ccc2c(c1)C(c1ccccc1F)=NCc1c(C(=O)NC)ncn1-2 | 235 to 236 °C
21 | Cc1cc(-c2ccc(OCc3ccncc3)cc2)cc2ccc(=O)[nH]c12 | 270 to 274 °C
22 | O=C1C2C3C=CC(CC3)C2S(=O)(=O)N1CCCCBr (stereo unspecified) | 118 to 122 °C
23 | COC(C)=CC(=O)Nc1cccc([N+](=O)[O-])c1 | 187 °C
24 | COC(=O)CN(C)C(=O)CC(Cc1cccc2ccccc12)C(=O)NC(Cc1c[nH]cn1)C(=O)NC(CC(C)C)C(O)C(=O)OC (mixture of isomers) | 75 to 79 °C
25 | CCc1cc(C)nc2c(C)ccc([N+](=O)[O-])c12 | 89 to 90 °C
26 | CCc1ccc(-n2c(-c3ccc(SC)cc3)nc(SC)c(C#N)c2=O)cc1 | 223 to 225 °C

Row | Compound | melting point
27 | O=C(O)CCCCCCCCCCC(=O)CCC(=O)O | 117 to 118 °C
28 | COC(=O)C1(O)C(=O)Nc2ccc(C(F)(F)F)cc2CC1c1ccc(OC)cc1 (stereo unspecified) | 196 to 198 °C
29 | NC(=O)c1cn(-c2ccccn2)nc1-c1ccc([N+](=O)[O-])o1 | 250 °C
30 | COc1ccc(Nc2c(C#N)cnc3cc(OC)c(OC)cc23)cc1O | 254 to 256 °C
31 | O=C(c1ccccc1)N1CCN(CC(O)Cn2c3ccccc3c3ccccc32)CC1 (stereo unspecified) | 153 °C
32 | CC(C)(C)C(=O)Nc1cccc(-c2ccnc3c(C(=O)c4ccco4)cnn23)c1 | 203 to 204 °C
33 | CCOC(=O)c1cnc2cc(Br)c(F)cc2c1O | > 280 °C
34 | CC(=S)NCC1CC(c2ccc(-n3cccc3)c(F)c2)=NO1 (single isomer, unassigned; (-)) | 152 to 153 °C
35 | COc1ccc(Cl)cc1Cn1nc(-c2ccc(C(F)(F)F)cc2)oc1=O | 144 to 145 °C
36 | CCn1ncnc1COc1nc2c(-c3ccccc3)nnc(C)n2c1C1CCCC1 | 94 to 96 °C
37 | COc1ccc(C(=O)Nc2c(Cl)cncc2Cl)cc1OC1COCC1OCSC (stereo unspecified) | 195 to 198 °C
38 | O=c1[nH]c(=O)n(Cc2ccc(Cl)cc2)c2ccccc12 | 217 to 218 °C
39 | CC(=O)Nc1cc(-c2c(-c3cccc(C)c3)nc3cccnn23)ccn1 | 227 to 228 °C
40 | COc1cc(-c2ccc(NN)nn2)ccc1OC(F)F | 154 °C
41 | N#Cc1ccc(-c2ccc(OC(F)(F)F)c(CNC3CCN(C(=O)C(N)=O)CC3c3ccccc3)c2)c(F)c1 (stereo unspecified) | 142 to 144 °C
42 | O=[N+]([O-])c1ccc(F)c(-c2cccc(CO)c2)c1 | 113 to 114 °C
43 | CN1CCC(C2(O)c3cc(F)ccc3CCc3cccnc32)CC1 (stereo unspecified) | 126 to 127 °C
44 | Cn1cc(Br)cc1C=O | 123 to 124 °C
45 | O=C(O)c1ccsc1-c1sccc1C(=O)O | 194 to 198 °C
46 | CCOC(=O)Nc1ccc(OC)c(OC)c1C=O | 86 to 88 °C
47 | COc1ccccc1C1(C(C)(C)O)CCN(C)CC1 | 110 to 111 °C
48 | COC(=O)Nc1cc(OC)c(-c2ccc(C[C@H](NC(=O)c3c(Cl)cccc3Cl)C(=O)O)cc2)c(OC)c1 | 235 to 236 °C
49 | CC(=O)Oc1cc(C)cc(C(=O)O)c1C | 153 to 154 °C
50 | N#CCc1ccc(C(=O)c2ccc(Cl)cc2)[nH]1 | 203 to 205 °C
51 | Cc1cccc(C(=O)N[C@@H](CC(C)C)C(=O)N[C@@H](C(C)C)[C@@H](O)c2c(-c3ccccc3)c2=O)n1 | 98 to 100 °C
52 | CCCC1OCC(C)n2c1nc1c(N)nc3ccccc3c12 (stereo unspecified) | 243 to 268 °C

Row | Compound | melting point
53 | COc1ccc(C2N(C(C)=O)c3ccccc3-c3c([N+](=O)[O-])cnn32)cc1 (stereo unspecified) | 153 to 154 °C
54 | COc1ccc(S(=O)(=O)C2(C(=O)O)CCN(CCCOc3ccccc3)CC2)cc1 | 101 °C
55 | CCCc1nc(CSc2ccc(CCC(=O)O)cc2)c(C(=O)O)n1Cc1cc2c(cc1Cl)OCO2 | 171 °C
56 | CCn1nc(Cc2ccc(N)cc2)oc1=O | 88 to 89 °C
57 | Cc1cc(C(=O)c2sc(Nc3ccc(N4CCN(C)CC4)cc3)nc2N)c(C)s1 | 205 to 206 °C
58 | O=C(O)c1cn(CCc2cccc(C(F)(F)F)c2)c2cc(C3CC3)nn2c1=O | 200 to 205 °C
59 | Cc1oc2ccccc2c1C(=O)c1ccc(Cl)c(S(N)(=O)=O)c1 | 183 °C
60 | CNc1nccc(-c2cc(NCCCNc3ncnc4[nH]nc(Br)c34)c3cc(OC)ccc3c2)n1 | 145 to 148 °C
61 | NNC(=O)c1ccccc1CS(N)(=O)=O | 221 to 222 °C
62 | CN1C(=O)C(C)(C)C(=O)N(C)c2cc(N)ccc21 | 221 to 222 °C
63 | O=C(NC1CCCCC1)c1ccc(Cn2cnc3ccccc32)cc1 | 189 to 191 °C
64 | Cc1c(Nc2c(C#N)cncc2-c2coc(CN3CCN(C)CC3)c2)ccc2[nH]ccc12 | 129 °C
65 | COc1cc(C)c(C(=O)c2c(OC)ccc(C(F)(F)F)c2C)c(OC)c1OC | 95 to 96 °C
66 | CCOC(=O)C(Oc1ccc(Oc2ccc(C#N)cc2)cc1)C(=O)OCC | 42 to 46 °C
67 | CONC(=O)NC1CCC(=O)c2ccccc21 (stereo unspecified) | 148 to 151 °C
68 | COC(=O)C[C@@H](SCc1ccccc1)C(=O)O | 91 to 92 °C
69 | O=C(O)Cc1ccc(C(=O)c2ccccc2)s1 | 144 °C
70 | CCOC(=O)c1cccnc1N | 90.5 to 92.5 °C
71 | Fc1c(F)c(Br)c2nsnc2c1Br | 148 to 149 °C
72 | O=C(C=C(c1ccccc1)c1ccccc1)NCCCCc1cccnc1 | 78 to 80 °C
73 | ON=C(Cc1ccccc1)c1ccccc1 | 94 to 96 °C
74 | O=C1CCC(N2Cc3c(OCc4cc(Cl)ccc4Cl)cccc3C2=O)C(=O)N1 (stereo unspecified) | 256 to 258 °C
75 | CC(C)N1Cc2cc(O)ccc2N(CCN2CC=C(c3c[nH]c4cc(F)ccc34)CC2)S1(=O)=O | 80 to 82 °C
76 | O=C(NOc1ccc([N+](=O)[O-])cc1)OCCCNC(=O)OC1CCN(C(=O)Oc2ccc(Oc3ccccc3)cc2)CC1 | 97 to 100 °C
77 | COc1ccccc1N1CCN(CCN(CCCN2CC=C(c3c[nH]c4cc(F)ccc34)CC2)C(C)=O)CC1 | 75 to 77 °C
78 | COc1ccc(COC(C)(C)C(=O)Nc2c(N)n(Cc3ccc(OC)c(OC4CCCC4)c3)c(=S)[nH]c2=O)cc1 | 172 to 184 °C

Row | Compound | melting point
79 | CN1CCN(c2cccc(Oc3cc(=O)[nH]c4ccccc34)c2)CC1 | 218 to 221 °C
80 | CC#CCOc1ccc(S(=O)C(C(=O)NO)c2ccccc2OC)cc1 (stereo unspecified) | 168 °C
81 | O=C(Nc1ccccc1Cl)Oc1ccc2c(c1)CCCN2 | 201 °C
82 | O=c1[nH]nccc1-c1ccccc1 | 216 to 219 °C
83 | Cc1cccc(N2CCN(c3cc[nH]c(=S)c3C#N)CC2C)c1 (stereo unspecified) | 250 to 251 °C
84 | CCS(=O)(=O)c1nc2c(cc1F)c(=O)c(C(=O)O)cn2C1CC1 | 240 to 242 °C
85 | COc1cc(NC(=O)c2ccc(-c3ccncc3)cc2)cc(N2CCN(C)CC2)c1OC | 219 to 221 °C
86 | CCOC(=O)C(C)(C)Oc1cccc2c1C[C@@H](OC)[C@H](O)C2 (relative stereo) | 153 to 155 °C
87 | CC(C)[C@@H]1CC[C@@H](C)C[C@H]1OC(=O)NCCC(C)n1cnc2c(N)nc3ccccc3c21 (stereo partly specified) | 84 to 86 °C
88 | COc1ccccc1OC(=O)c1cnoc1C | 108 to 111 °C
89 | Cc1nc(-c2nn(-c3ccccc3)c(=O)cc2Oc2ccccc2)n[nH]1 | 245 to 247 °C
90 | OCc1nc(-c2cccs2)cs1 | 113 to 114 °C
91 | COc1cc(OC)nc(-n2ncn(N)c2=O)n1 | 238 °C
92 | N#CSc1cc(Cl)c(Cl)c2sc(NC(=O)Nc3ccc(Cl)cc3)nc12 | 238 to 239 °C
93 | Nc1cc(OCC2CCCCO2)c(C(=O)O)cc1Cl (stereo unspecified) | 146 to 148 °C
94 | Cc1nn(C)c2ncc(C(=O)O)c(NCS(=O)(=O)c3ccc(F)cc3)c12 | 275 to 276 °C
95 | COc1ccccc1N1CCC(CNC[C@H]2COc3ccccc3O2)CC1 | 78 to 79 °C
96 | CCOC(=O)C#CC(OC(N)=O)c1ccccc1 (stereo unspecified) | 82 °C
97 | COc1ccccc1N1CCN(CC(C(=O)NC(C)(C)C)c2ccccn2)CC1 (stereo unspecified) | 138 to 139 °C
98 | CC(=O)Nc1nsc2ccc(NS(=O)(=O)c3cc(Cl)ccc3Cl)cc12 | 169 to 172 °C
99 | CCOC(=O)c1cc(=O)cc(-c2ccc(S(C)(=O)=O)cc2)o1 | 176 to 179 °C
100 | CCOC(=O)N[C@@H]1c2cc(C#N)ccc2OC(C)(C)[C@H]1O (relative stereo) | 147 to 148 °C
101 | CSCn1c(C(F)(F)F)nc2c(Br)cc(C(F)(F)F)cc21 | 56 to 60 °C
